Where two headings read alike, the source gives them in different places.
Tests used:
[1] = test system: Companion animal ExPEC (n = 51); assay: MIC, broth micro-dilution, clinical isolates; format: cell-based, Escherichia coli; settings: for MIC range: Companion animal ExPEC (n = 51); for MIC50 / MIC90: Escherichia coli
Experimental: (§1) A variety of Gram-negative reference strains (E. coli ATCC 25922, E. coli ATCC 10763, P. aeruginosa PAO1, P. aeruginosa ATCC 27853, A. baumannii ATCC 12457, A. baumannii ATCC 19606, K. pneumoniae ATCC 4352 and K. pneumoniae ATCC 33495) were used for initial screening and combination testing with PMB. The organisms were speciated using biochemical testing and MALDI-TOF mass spectrometry (Bruker, Preston, VIC, Australia). Activity testing of NCL259 and NCL265 was also carried out on 51 extraintestinal clinical E. coli isolates from companion animals, and 83 porcine and bovine enterotoxigenic E. coli (ETEC) isolates from the Australian Centre for Antimicrobial Resistance Ecology collection. E. coli wild-type (BW 25113) and its mutant BW 25113∆AcrB, in which the inner membrane component AcrB of the tripartite multidrug efflux system AcrA/AcrB/TolC has been deleted, were obtained from the bacterial collection held at Health and Biomedical Innovation, Clinical and Health Sciences, The University of South Australia. All isolates were cultured on sheep blood agar (SBA) plates at 37 °C for 18 h before being subcultured into Luria Bertaini (LB) (Oxoid, Scoresby, VIC, Australia) broth and grown to A600nm = 0.5 (equivalent to approx. 1.5 × 10^8 colony-forming units (CFU)/mL).
(§2) MICs for NCL259 and NCL265 (serial two-fold dilutions commencing at 256 µg/mL) were determined (in duplicate) in round bottom 96–well microtitre trays (Sarstedt 82.1582.001), using the broth micro-dilution method recommended by the Clinical and Laboratory Standards Institute (CLSI). We have shown previously that robenidine can chelate calcium ions from cation-adjusted Mueller-Hinton broth, which causes the loss of activity of robenidine. Therefore, LB broth was used in this study. Additionally, considering the low solubility of robenidine and its analogues in aqueous solutions, two-fold serial dilutions of stock solutions of these compounds were prepared in 100% DMSO [21]. The MIC for ampicillin against each isolate was determined for each test to serve as an internal quality control. The MICs of isolates were determined by visual reading and using an EnSpire Multimode Plate Reader 2300 at A600nm.

[2] = test system: Porcine/bovine ETEC (n = 83); assay: MIC, broth micro-dilution, clinical isolates; format: cell-based, Escherichia coli; settings: for MIC50 / MIC90: Escherichia coli; for MIC range: Porcine/bovine ETEC (n = 83)
Experimental: as §1, §2

K. oxytoca 13GNB–582 = assay: MIC, broth micro-dilution; format: cell-based; settings: Klebsiella oxytoca, read-out: MIC, Single Drug
Experimental: as §2
(§3) MICs of NCL259 or NCL265 in the presence of the efflux pump inhibitor, PAβN were determined using a checkerboard assay. […] Briefly, a two-fold serial dilution of each antimicrobial solution was prepared in its appropriate solvent (e.g., DMSO for robenidine analogues and Milli-Q water for PAβN), and 1 μL of each dilution was added from wells 12 to 3 (12.8–0.25 μg/mL for robenidine analogues, and 32–2 μg/mL for PAβN). Thereafter, 89 μL of LB broth was added to each well followed by the addition of 10 μL of bacterial suspension (1–5 × 10^6 CFU/mL) to each well. In this manner, the final concentration of DMSO in each well was 1%. The plate was subsequently incubated at 37 °C for 24 h. The resazurin assay was used for assessment of drug susceptibility of NCL259 and NCL265 (Supplementary Table S1–S6). The same method was also used to test the MICs of NCL259 or NCL265 in the presence of PMB against a range of Gram-negative reference strains (E. coli ATCC 25922, E. coli ATCC 10763, P. aeruginosa PAO1, P. aeruginosa ATCC 27853, A. baumannii ATCC 12457, A. baumannii ATCC 19606, K. pneumoniae ATCC 4352 and K. pneumoniae ATCC 33495). Stock solutions were prepared prior to use (25.6–0.25 mg/mL for robenidine analogues; 12.8–0.25 mg/mL for PMB). The interaction of two antibiotics was calculated as the fractional inhibitory concentration index (FICI) using the following formula:(1) FICI=MICA in combination/MICA alone+MICB in combination/MICB alone where A is NCL259 or NCL265 and B is PAβN or PMB. According to FICI calculations, the interaction between two compounds were interpreted as follows: synergistic (FICI ≤ 0.5); additive or partially synergistic (0.5 < FICI ≤ 1); indifferent (1 < FICI ≤ 4); and antagonistic (FICI > 4), as described previously. The dose reduction index (DRI) was used to describe the difference between the effective doses of NCL259 or NCL265 in combination with PMB or PAβN in comparison to their individual doses, using the following formula:(2) DRI=MICA alone/MICA in combination

K. pneumoniae 13GNB–429 [3] = assay: MIC, broth micro-dilution; format: cell-based; settings: Klebsiella pneumoniae, read-out: MIC, Single Drug
Experimental: as §2, §3

K. pneumoniae 13GNB–550 [4] = assay: MIC, broth micro-dilution; format: cell-based; settings: Klebsiella pneumoniae, read-out: MIC, Single Drug
Experimental: as §2, §3

K. pneumoniae 13GNB–429 [5] = assay: Checkerboard assay with PAβN; format: cell-based, Klebsiella pneumoniae; settings: for concentration at the marked interaction: resazurin
Experimental: as §3
(§4) Evaluation of DRI is important clinically because it can allow the dose of a potentially toxic drug to be lowered in combination with another compound without reducing the drug’s efficacy. A DRI higher than 1 is viewed as beneficial.

K. pneumoniae 13GNB–550 [6] = assay: Checkerboard assay with PAβN; format: cell-based, Klebsiella pneumoniae; settings: for concentration at the marked interaction: resazurin
Experimental: as §3, §4

[7] = test system: Gram-negative reference strains; assay: Checkerboard with PMB over the reference strains; format: cell-based; settings: sub-inhibitory PMB
Experimental: as §3, with “Stock solutions were prepared prior to use (25.6–0.25 mg/mL for robenidine analogues; 12.8–0.25 mg/mL for PMB).” left out, “According to FICI calculations, the interaction between two compounds were interpreted as follows: synergistic (FICI ≤ 0.5); additive or partially synergistic (0.5 < FICI ≤ 1); indifferent (1 < FICI ≤ 4); and antagonistic (FICI > 4), as described previously. The dose reduction index (DRI) was used to describe the difference between the effective doses of NCL259 or NCL265 in combination with PMB or PAβN in comparison to their individual doses, using the following formula:(2) DRI=MICA alone/MICA in combination” left out

[8] = test system: K. pneumoniae 13GNB–429, K. pneumoniae 13GNB–550 and K. oxytoca 13GNB–582; assay: MIC, three resistant Klebsiella isolates; format: cell-based; settings: three resistant Klebsiella spp. isolates
Experimental: as §2

[9] = test system: Gram-negative human and animal isolates, including human KAPE pathogens; assay: MIC range over all isolates; format: cell-based; settings: variety of Gram-negative human and animal isolates (discussion)
Experimental: A variety of Gram-negative reference strains (E. coli ATCC 25922, E. coli ATCC 10763, P. aeruginosa PAO1, P. aeruginosa ATCC 27853, A. baumannii ATCC 12457, A. baumannii ATCC 19606, K. pneumoniae ATCC 4352 and K. pneumoniae ATCC 33495) were used for initial screening and combination testing with PMB. The organisms were speciated using biochemical testing and MALDI-TOF mass spectrometry (Bruker, Preston, VIC, Australia). Activity testing of NCL259 and NCL265 was also carried out on 51 extraintestinal clinical E. coli isolates from companion animals, and 83 porcine and bovine enterotoxigenic E. coli (ETEC) isolates from the Australian Centre for Antimicrobial Resistance Ecology collection. […]
MICs for NCL259 and NCL265 (serial two-fold dilutions commencing at 256 µg/mL) were determined (in duplicate) in round bottom 96–well microtitre trays (Sarstedt 82.1582.001), using the broth micro-dilution method recommended by the Clinical and Laboratory Standards Institute (CLSI). […] The MIC for ampicillin against each isolate was determined for each test to serve as an internal quality control. The MICs of isolates were determined by visual reading and using an EnSpire Multimode Plate Reader 2300 at A600nm.

[10] = K. pneumoniae 13GNB–429, PAβN + NCL265
[11] = Table S4, NCL265 + PAβN, replicate 1
[12] = Table S4, NCL265 + PAβN, replicate 2
[13] = K. pneumoniae 13GNB–550, PAβN + NCL265
[14] = Table S5, NCL265 + PAβN, replicate 1
[15] = Table S5, NCL265 + PAβN, replicate 2
[16] = K. pneumoniae 13GNB–429, PAβN + NCL259
[17] = Table S1, NCL259 + PAβN, replicate 1
[18] = Table S1, NCL259 + PAβN, replicate 2
[19] = K. pneumoniae 13GNB–550, PAβN + NCL259
[20] = Table S2, NCL259 + PAβN, replicate 2

Q: For [H]/N=C(\N)NN=C(CCCCCC)c1ccc(Cl)cc1 [NCL265, (E)-2-(1-(4-chlorophenyl)heptylidene)hydrazine-1-carboximidamide], which “MIC range” value [1] is on record?
A: 4 to 16 µg/mL

Q: And the MIC50 [1]?
A: 32 µg/mL

Q: And the MIC90 [1]?
A: 32 µg/mL

Q: And the MIC50 [2]?
A: 8 µg/mL

Q: What about the MIC90 [2] of the same compound?
A: 8 µg/mL

Q: And the “MIC range” value [2]?
A: 2 to 16 µg/mL

Q: What about the MIC (K. oxytoca 13GNB–582) of the same compound?
A: > 256 µg/mL

Q: And the MIC (K. pneumoniae 13GNB–429 [3])?
A: > 256 µg/mL

Q: What about the MIC (K. pneumoniae 13GNB–550 [4]) of the same compound?
A: > 256 µg/mL

Q: What about the “DRI PAβN:NCL265” value (K. pneumoniae 13GNB–429 [5]; K. pneumoniae 13GNB–429) of the same compound?
A: 64

Q: And the “Combination Effect” value (K. pneumoniae 13GNB–429 [5]; [10])?
A: Additivity (additive or partially synergistic, 0.5 < FICI ≤ 1)

Q: What about the FICI (K. pneumoniae 13GNB–429 [5]; [10]) of the same compound?
A: 0.516

Q: What about the “MIC, Combination” value (K. pneumoniae 13GNB–429 [5]; [10]) of the same compound?
A: 4 µg/mL

Q: What about the interaction (K. pneumoniae 13GNB–429 [5]; [11]) of the same compound?
A: synergistic (synergistic (FICI ≤ 0.5))

Q: What about the interaction (K. pneumoniae 13GNB–429 [5]; [12]) of the same compound?
A: synergistic (synergistic (FICI ≤ 0.5))

Q: What about the “concentration at the marked interaction” value (K. pneumoniae 13GNB–429 [5]; [11]) of the same compound?
A: 8 µg/mL

Q: What about the “concentration at the marked interaction” value (K. pneumoniae 13GNB–429 [5]; [12]) of the same compound?
A: 8 µg/mL

Q: And the “DRI PAβN:NCL265” value (K. pneumoniae 13GNB–550 [6]; K. pneumoniae 13GNB–550)?
A: 64

Q: What about the “Combination Effect” value (K. pneumoniae 13GNB–550 [6]; [13]) of the same compound?
A: Additivity (additive or partially synergistic, 0.5 < FICI ≤ 1)

Q: What about the FICI (K. pneumoniae 13GNB–550 [6]; [13]) of the same compound?
A: 0.516

Q: What about the “MIC, Combination” value (K. pneumoniae 13GNB–550 [6]; [13]) of the same compound?
A: 4 µg/mL

Q: What about the interaction (K. pneumoniae 13GNB–550 [6]; [14]) of the same compound?
A: synergistic (synergistic (FICI ≤ 0.5))

Q: And the interaction (K. pneumoniae 13GNB–550 [6]; [15])?
A: synergistic (synergistic (FICI ≤ 0.5))

Q: And the “concentration at the marked interaction” value (K. pneumoniae 13GNB–550 [6]; [14])?
A: 8 µg/mL

Q: What about the “concentration at the marked interaction” value (K. pneumoniae 13GNB–550 [6]; [15]) of the same compound?
A: 8 µg/mL

Q: And the “reduction of MIC in combination with PMB” value [7]?
A: 4- to 256 fold

Q: And the MIC [8]?
A: > 256 µg/mL

Q: What about the MIC ([8]; read-out: MIC) of the same compound?
A: > 256 µg/mL

Q: And the MIC range [9]?
A: 2 to 32 µg/mL

Q: Which results are given for [H]/N=C(\N)NN=C(CC1CCCCC1)c1ccc(Cl)cc1 [NCL259, (E)-2-(1-(4-chlorophenyl)-2-cyclohexylethylidene)hydrazine-1-carboximidamide]?
A: MIC range [1]: 16 to 64 µg/mL; MIC50 [1]: 32 µg/mL; MIC90 [1]: 32 µg/mL; MIC50 [2]: 8 µg/mL; MIC90 [2]: 8 µg/mL; MIC range [2]: 4 to 64 µg/mL; MIC (K. oxytoca 13GNB–582): > 256 µg/mL; MIC (K. pneumoniae 13GNB–429 [3]): > 256 µg/mL; MIC (K. pneumoniae 13GNB–550 [4]): > 256 µg/mL; DRI PAβN:NCL259 (K. pneumoniae 13GNB–429 [5]; K. pneumoniae 13GNB–429): 16; Combination Effect (K. pneumoniae 13GNB–429 [5]; [16]): Synergism (synergistic, FICI ≤ 0.5); MIC, Combination (K. pneumoniae 13GNB–429 [5]; [16]): 16 µg/mL; interaction (K. pneumoniae 13GNB–429 [5]; [17]): synergistic (synergistic (FICI ≤ 0.5)); interaction (K. pneumoniae 13GNB–429 [5]; [18]): synergistic (synergistic (FICI ≤ 0.5)); concentration at the marked interaction (K. pneumoniae 13GNB–429 [5]; [17]): 16 µg/mL; concentration at the marked interaction (K. pneumoniae 13GNB–429 [5]; [18]): 16 µg/mL; DRI PAβN:NCL259 (K. pneumoniae 13GNB–550 [6]; K. pneumoniae 13GNB–550): 32; Combination Effect (K. pneumoniae 13GNB–550 [6]; [19]): Additivity (additive or partially synergistic, 0.5 < FICI ≤ 1); FICI (K. pneumoniae 13GNB–550 [6]; [19]): 0.531; MIC, Combination (K. pneumoniae 13GNB–550 [6]; [19]): 8 µg/mL; interaction (K. pneumoniae 13GNB–550 [6]; [20]): synergistic (synergistic (FICI ≤ 0.5)); concentration at the marked interaction (K. pneumoniae 13GNB–550 [6]; Table S2, NCL259 + PAβN, replicate 1): 16 µg/mL; concentration at the marked interaction (K. pneumoniae 13GNB–550 [6]; [20]): 16 µg/mL; reduction of MIC in combination with PMB [7]: 8- to 256 fold; MIC [8]: > 256 µg/mL; MIC ([8]; read-out: MIC): > 256 µg/mL
